Source: publication PMC4993599 (Bioorganic & medicinal chemistry letters, 2016)

Tests used:
[1] = Lipophilicity by analytical reverse phase HPLC; format: physicochemical
[2] = molecular target: TSPO (Rattus norvegicus, UniProt P16257); assay: C6 glioma cell lysate binding assay; details: for binding affinity (in words): TSPO

SMILES | lipophilicity (in words) [1] | binding affinity (in words) [2] | further results
CCCCN(CCCC)C(=O)Cc1c(-c2ccc(OC)cc2)nn2c(CC)cc(CC)nc12 [Compound 12] | extremely lipophilic |  | 
CCCCCCN(CCCCCC)C(=O)Cc1c(-c2ccc(OC)cc2)nn2c(CC)cc(CC)nc12 [Compound 14] | extremely lipophilic |  | 
CCN(CC)C(=O)Cc1c(-c2ccc(OC)cc2)nn2c(C)cc(C)nc12 [Compound 8, DPA-713, reference compound] |  |  | log P7.5 ([1]; reverse phase HPLC, averaged from triple runs): 2.40
CCCCCN(CCCCC)C(=O)Cc1c(-c2ccc(OC)cc2)nn2c(CC)cc(CC)nc12 [Compound 13] | extremely lipophilic |  | 
CCc1cc(CC)n2nc(-c3ccc(OC)cc3)c(CC(=O)N(CC)C(C)(C)C)c2n1 [Compound 16] |  |  | decrease of affinity when substituting ethyl groups with t-butyls ([2]; compound 16 relative to compound 10): over 300 fold

Further lines, with some results ahead:

lipophilicity (in words) [1] | binding affinity (in words) [2] | SMILES | further results
 | very poor binding affinity | CCc1cc(CC)n2nc(-c3ccc(OC)cc3)c(CC(=O)N3CCCC3)c2n1 [Compound 24] | 
 | very poor binding affinity | CCc1cc(CC)n2nc(-c3ccc(OC)cc3)c(CC(=O)N3CCC3)c2n1 [Compound 23] | 
 | very poor binding affinity | CCc1cc(CC)n2nc(-c3ccc(OC)cc3)c(CC(=O)N3CCCCC3)c2n1 [Compound 25] | 
